# Measurements from US9464092B2, “Transient protection of normal cells during chemotherapy” (G1 Therapeutics, Inc., priority 2013, dated 2016).
# What was measured:
# [1] = Metabolic stability in liver microsomes; type: in vitro ADME, human, dog, rat, monkey, and mouse; details: each of the species tested
# Description: Human, mouse, and dog liver microsomes were purchased from Xenotech, and Sprague-Dawley rat liver microsomes were prepared by Absorption Systems. The reaction mixture comprising 0.5 mg/mL of liver microsomes, 100 mM of potassium phosphate, pH 7.4, 5 mM of magnesium chloride, and 1 uM of test compound was prepared. The test compound was added into the reaction mixture at a final concentration of 1 uM. An aliquot of the reaction mixture (without cofactor) was incubated in shaking water bath at 37 deg. C. for 3 minutes. The control compound, testosterone, was run simultaneously with the test compound in a separate reaction. The reaction was initiated by the addition of cofactor (NADPH), and the mixture was then incubated in a shaking water bath at 37 deg. C. Aliquots (100 μL) were withdrawn at 0, 10, 20, 30, and 60 minutes for the test compound and 0, 10, 30, and 60 minutes for testosterone. […] Test compound samples were analyzed using the Orbitrap high resolution mass spectrometer to quantify the disappearance of parent test compound and detect the appearance of metabolites. […] Half-lives were calculated using GraphPad software, fitting to a single-phase exponential decay equation.
# When calculated half-life was longer than the duration of the experiment, the half-life was expressed as >the longest incubation time. The calculated half-life is also listed in parentheses. […]
# [2] = test system: telomerized human diploid fibroblasts (tHDFs); test: Caspase 3/7 activation in tHDF cells with chemotherapy; type: cell-based; details: pretreatment before carboplatin, doxorubicin, etoposide, camptothecin, and paclitaxel
# Description: (§1) Cell survival was determined by Cell TiterGlo assay per manufacturer's recommendations. For both γ-H2AX and caspase 3/7 assays, cells were plated and allowed to become adherent for 24 hours. […] For γ-H2AX, cells were harvested for analysis 8 hours after chemotherapy exposure. For the γ-H2AX assay, cells were fixed, permeabilized, and stained with anti-γ-H2AX as per the γ-H2AX Flow Kit (Millipore) and quantitated by flow cytometry. Data was analyzed using FlowJo 2.2 software developed by TreeStar, Inc. For the in vitro caspase 3/7 assay, cells were harvested 24 hours post chemotherapy treatment. Caspase 3/7 activation was measured using the Caspase-Glo® 3/7 Assay System (Promega) per manufacturer's recommendations.
# [3] = test system: renal proximal tubule epithelial cells; test: Caspase 3/7 activation in renal proximal tubule epithelial cells with cisplatin; type: cell-based, human; details: 30 nM-1 uM with cisplatin 25 uM, 50 uM, or 100 uM
# Description: Normal renal proximal tubule epithelial cells were obtained from American Type Culture Collection (ATCC, Manassas, Va.). Cells were grown in an incubator at 37° C. in a humidified atmosphere of 5% CO2 in Renal Epithelial Cell Basal Media (ATCC) supplemented with Renal Epithelial Cell Growth Kit (ATCC) in 37° C. humidified incubator. […] Caspase 3/7 activation was measured 24 hours later using the Caspase-Glo 3/7 Assay System (Promega, Madison, Wis.) by following the manufacturer's instructions.
# Normal renal proximal tubule epithelial cells were obtained from American Type Culture Collection (ATCC, Manassas, Va.). Cells were grown in an incubator at 37° C. in a humidified atmosphere of 5% CO2 in Renal Epithelial Cell Basal Media (ATCC) supplemented with Renal Epithelial Cell Growth Kit (ATCC) in 37° C. humidified incubator. […] For the γ-H2AX assay, cells were fixed, permeabilized, and stained with anti-γ-H2AX as per the γ-H2AX Flow Kit (Millipore) and quantitated by flow cytometry. Data was analyzed using FlowJo 2.2 software developed by TreeStar, Inc. Caspase 3/7 activation was measured using the Caspase-Glo 3/7 Assay System (Promega, Madison, Wis.) by following the manufacturer's instructions.
# [4] = test system: tHS68 cells (CDK4/6-dependent cell line); test: Cell cycle arrest by propidium iodide flow cytometry, tHS68; type: cell-based, human; details: 300 nM, 24 hours
# Description: (§2) To test the ability of Cdk4/6 inhibitors to induce a clean G1-arrest, a cell based screening method was used consisting of two Cdk4/6-dependent cell lines (tHS68 and WM2664; Rb-positive) and one Cdk4/6-independent (A2058; Rb-negative) cell line. […] At the conclusion of the experiment, cells were harvested, fixed, and stained with propidium iodide (a DNA intercalator), which fluoresces strongly red (emission maximum 637 nm) when excited by 488 nm light. Samples were run on Dako Cyan flow cytometer and >10,000 events were collected for each sample. Data were analyzed using FlowJo 2.2 software developed by TreeStar, Inc.
# tHS68 human fibroblasts = test: Protection from chemotherapy-induced cell death (Cell TiterGlo); type: cell-based; details: etoposide 5 μM or carboplatin 100 μM
# Description: as §1
# [5] = test system: WM2664 cells (CDK4/6-dependent cell line); test: Cell cycle arrest by propidium iodide flow cytometry, WM2664; type: cell-based; details: 300 nM, 24 hours
# Description: as §2
# [6] = test system: hematopoietic cells (bone marrow); test: EdU incorporation in hematopoietic cell lineages of C57Bl/6 mice; type: in vivo; details: 150 mg/kg oral gavage, 12 hours
# Description: Ten-hours later, all mice were given a single i.p. injection of 100 mcg EdU (5-ethynyl-2′-deoxyuridine) to label cells in S-phase of the cell cycle. All treated mice were euthanized 2 hours after EdU injection, bone marrow cells were harvested and processed for flow cytometric analysis of EdU-incorporation (FIG. 13).
# [7] = test system: A2058 cells (CDK4/6-independent cell line); test: Cell cycle arrest by propidium iodide flow cytometry, A2058; type: cell-based, human; details: 300 nM, 24 hours
# Description: as §2
# [8] = test system: 456 (395 non-mutant) kinases; test: DiscoveRx KINOMEscan kinase profiling; type: binding; details: 1000 nM
# Description: The compound was screened using a single concentration of 1000 nM (>1000 times the 1050 on Cdk4). Results from this screen confirmed the high potency against Cdk4 and high selectivity versus Cdk2.
compound,measurement,setting,value
CN1CCN(c2ccc(Nc3ncc4cc5n(c4n3)C3(CCCCC3)CNC5=O)nc2)CC1 [Compound T],half-life in liver microsomes compared with PD0332991,[1],shorter half-life than PD0332991
same,caspase 3/7 activation,[2],robust decrease in caspase 3/7 activation in a dose-dependent manner
same,caspase 3/7 activation,[3],dose-dependent reduction in caspase 3/7 activation
same,effect on S-phase peak,[4],causes a loss of the S-phase peak
same,protection from chemotherapy-induced cell death (cell survival),tHS68 human fibroblasts,selective protection from carboplatin and etoposide-induced cell death
same,effect on S-phase peak,[5],causes a loss of the S-phase peak
same,"inhibition of hematopoietic stem cells (HSC), EdU",[6],74%
same,"inhibition of multipotent progenitors (MPP), EdU",[6],90%
same,"reduction in EdU+ cell frequency, B cell progenitors",[6],> 80%
same,"reduction in EdU+ cell frequency, Mac1+G1+ myeloid cells",[6],46%
same,"reduction in EdU+ cell frequency, T cell progenitors",[6],> 99%
same,"reduction in EdU+ cell frequency, Ter119+ erythroid cells",[6],58%
same,"reduction in EdU+ cell frequency, lineage restricted myeloid (CMP, GMP and MEP) and lymphoid progenitors (CLP)",[6],76-92%
same,reduction of EdU+ cell frequency in unfractionated whole bone marrow cells,[6],~70%
same,effect on S-phase peak,[7],does not cause a loss of the S-phase peak
same,number of 395 non-mutant kinases inhibited,[8]; inhibitory threshold of 65%,92
same,percent of 395 non-mutant kinases inhibited,[8]; inhibitory threshold of 65%,23.3%
same,number of 395 non-mutant kinases inhibited,[8]; inhibitory threshold of 90%,31
same,percent of 395 non-mutant kinases inhibited,[8]; inhibitory threshold of 90%,7.8%
same,number of 395 non-mutant kinases inhibited,[8]; inhibitory threshold of 99%,6
same,percent of 395 non-mutant kinases inhibited,[8]; inhibitory threshold of 99%,1.5%
